Assay results published in ChEMBL document CHEMBL5053550, “LipE guided discovery of isopropylphenyl pyridazines as pantothenate kinase modulators” (Bioorg Med Chem, 2021).
≈ marks a conversion by molar mass, not a printed value.

What was measured:
[1] = Half life in human plasma; assay type: ADME, cell-free
[2] = Protein binding in rat plasma by LCMS analysis; assay type: ADME, cell-free
[3] = Half life in […] human microsomes; assay type: ADME, Liver, Microsome
[4] = Protein binding in mouse plasma by LCMS analysis; assay type: ADME, cell-free
[5] = Half life in mouse liver microsomes; assay type: ADME, Microsome; conditions: for half-life: liver microsomes
[6] = Half life in […] rat microsomes; assay type: ADME, Liver, Microsome
[7] = Solubility of the compound in pH 7.4 by UV spectrometry; assay type: physicochemical; conditions: buffer
[8] = Permeability of the compound by PAMPA assay; assay type: ADME; conditions: for Papp: read-out: permeability
[9] = Protein binding in human plasma by LCMS analysis; assay type: ADME, cell-free
[10] = target: Pantothenate kinase 3 (Homo sapiens, UniProt Q9H999)
Pantothenate kinase 3, sequence (Q9H999 whole entry): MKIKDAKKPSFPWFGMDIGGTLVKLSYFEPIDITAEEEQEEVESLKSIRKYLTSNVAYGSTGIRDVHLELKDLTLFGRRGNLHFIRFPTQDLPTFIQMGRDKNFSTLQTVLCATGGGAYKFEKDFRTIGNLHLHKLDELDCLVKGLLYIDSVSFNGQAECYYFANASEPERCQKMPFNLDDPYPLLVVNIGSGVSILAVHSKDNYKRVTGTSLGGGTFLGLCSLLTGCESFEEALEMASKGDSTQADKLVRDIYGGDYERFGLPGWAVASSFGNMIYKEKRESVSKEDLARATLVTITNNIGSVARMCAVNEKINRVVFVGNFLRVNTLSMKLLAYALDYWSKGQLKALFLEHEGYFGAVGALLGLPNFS
Description: Inhibition of human recombinant N-terminal His6-fusion tagged PanK3 expressed in Escherichia coli BL21 (DE3) measured after 10 mins in presence of ATP and D-[14C]-pantothenate by scintillation counting method

[11] = Permeability across apical to basolateral side in human Caco2 cells; assay type: ADME, cell-based; conditions: Caco-2, read-out: permeability

SMILES	IC50 [10]	also measured
CC(C)c1ccc(NC(=O)N2CCN(c3ccc(C#N)nn3)CC2)cc1	–	half-life [1]: > 48 h; PPB [2]: 89%; t1/2 [3]: 64 min; PPB [4]: 92%; t1/2 ([5]; microsomes): 113 min; t1/2 [6]: 294 min; solubility [7]: 5.5 µM (≈ 1.93 µg/mL); Papp [8]: 316 ×10⁻⁶ cm/s; PPB [9]: 92%
CC(C)c1ccc(NC(=O)N2CCN(c3cccc(Cl)c3)CC2)cc1	1700 nM	–
CC(C)c1ccc(NC(=O)N2CCN(c3ccc(Cl)cn3)CC2)cc1	220 nM	–
CC(C)c1ccc(NC(=O)N2CCN(c3cnc(C#N)nc3)CC2)cc1	170 nM	–
CC(C)(C)c1ccc(NC(=O)N2CCN(c3ccc(C#N)cn3)CC2)cc1	–	half-life [1]: > 48 h; PPB [2]: 98%; half-life [3]: 8 min; half-life [5]: 16 min; half-life [6]: 31 min; permeability [8]: 1232 10^-6 cm/s
CC(C)c1ccc(NC(=O)N2CCN(c3ncccc3C#N)CC2)cc1	1100 nM	–
CC(C)c1ccc(CC(=O)N2CCN(c3ccc(C#N)nn3)CC2)cc1	–	Papp A→B [11]: 30.2 ×10⁻⁶ cm/s; half-life [1]: > 48 h; fraction unbound ([2]; read-out: PPB): 0.09; half-life [3]: 7 min; fraction unbound ([4]; read-out: PPB (converted)): 0.08; half-life [5]: 8 min; Papp [8]: 413 ×10⁻⁶ cm/s; fraction unbound ([9]; read-out: PPB (converted)): 0.07
CC(=O)c1ccc(N2CCN(C(=O)Nc3ccc(C(C)C)cc3)CC2)cc1	3300 nM	–
CC(C)c1ccc(NC(=O)N2CCN(c3nccc(C#N)n3)CC2)cc1	140 nM	–
CC(C)c1ccc(NC(=O)N2CCN(c3ccc(N)cn3)CC2)cc1	> 10000 nM	–
CC(C)c1ccc(NC(=O)N2CCN(c3ccc(F)cc3)CC2)cc1	1800 nM	–
CC(C)c1ccc(NC(=O)N2CCN(c3ccc(C#N)cc3)CC2)cc1	580 nM	–
CC(C)c1ccc(NC(=O)N2CCN(c3ccc(C(F)(F)F)cn3)CC2)cc1	770 nM	–
CC(C)c1ccc(NC(=O)N2CCN(c3ccc(Br)cn3)CC2)cc1	220 nM	–
CC(C)c1ccc(NC(=O)N2CCN(c3ccccn3)CC2)cc1	5300 nM	–
CC(C)c1ccc(NC(=O)N2CCN(c3ncc(Br)cn3)CC2)cc1	160 nM	–
Cc1ccc(N2CCN(C(=O)Nc3ccc(C(C)C)cc3)CC2)nc1	2300 nM	–
CC(C)c1ccc(NC(=O)N2CCN(c3ccc(Cl)c(Cl)c3)CC2)cc1	1400 nM	–

Further lines, with some results ahead:

IC50 [10]	SMILES	also measured
1200 nM	CCCCc1ccc(NC(=O)N2CCN(c3ccc(C#N)cn3)CC2)c(C)c1	–
490 nM	CC(C)Cc1ccc(NC(=O)N2CCN(c3ccc(C#N)cn3)CC2)cc1	–
200 nM	N#Cc1ccc(N2CCN(C(=O)Cc3ccc(C4CC4)cc3)CC2)nc1	–
420 nM	CC(C)c1ccc(OC(=O)N2CCN(c3ccc(C#N)cn3)CC2)cc1	–
990 nM	CC(C)c1ccc(C(O)C(=O)N2CCN(c3ccc(C#N)cn3)CC2)cc1 (stereo unspecified)	–
270 nM	CC(C)c1ccc(CC(=O)N2CCN(c3nccc(Cl)n3)CC2)cc1	–
230 nM	CC(C)c1ccc(NC(=O)N2CCN(c3cc(C#N)ccn3)CC2)cc1	–
640 nM	CC(C)c1ccc(NC(=O)N2CCN(c3ccc(C#N)cn3)CC2)cc1	–
